According to patent US12064468B2, “Compositions and methods relating to a C-terminal peptide of troponin i with activity as a myofilament CA2+ desensitizer” (Wayne State University, priority 2019, dated 2024):
Ends that are not written are not given here.

How the values were obtained:
mAb TnI-1 [1] = experiment: Western blot with mAb TnI-1 (epitope in the C-terminal end of TnI); assay type: binding, mouse; details: after denaturing SDS-PAGE and blotting
Protocol: SDS-PAGE was performed to monitor the expression and identify the C27 peptide in intact TnI and fusion protein constructs. Briefly, 14% Laemmli SDS-PAGE with an acrylamide:bisacrylamide ratio of 29:1 was used to monitor protein expression. Protein samples were prepared by dissolving the proteins in an SDS-PAGE gel sample buffer containing 2% SDS and 3% β-mercaptoethanol. The samples were run on 0.75 mm gels at 20 mA per gel using a Bio-Rad mini-gel system. Resolved gels were stained with Coomassie Blue R-250 and de-stained using 10% acetic acid. The results were documented by imaging using a high resolution scanner.
Tris-Tricine small pore SDS-gels were utilized to […]. Briefly, 15% SDS-PAGE with acrylamide:bisacrylamide ratio of 20:1 was used to monitor the recovery of peptides. Samples were prepared as above. The gel was run using different anode and cathode buffers as described in H. Schagger et al., 166(2) (1987) 368-379; J.-P. Jin, Journal of Biological Chemistry 270(12) (1995) 6908-6916. The running conditions and documentation of results were carried out as above.
The protein bands resolved on SDS-PAGE gels were electrically transferred to nitrocellulose (NC) membranes or polyvinylidene difluoride (PVDF) membranes using a Bio-Rad semidry electrotransfer apparatus at 5 mA per cm^2. The membranes were then blocked with 1% bovine serum albumin (BSA) in Tris-buffered saline (TBS) at room temperature for 30 minutes, and incubated with mAb TnI-1 against an epitope in the C-terminal end of TnI or mAb 3C11 against the Tx3 metal affinity purification tag at 4° C. overnight. The TnI-1 mAb was raised using standard hybridoma technology in which the immunization of mouse used purified intact chicken fast TnI. […] The 3C11 mAb was generated using standard hybridoma technology in which the immunization used a Tx3 metal binding tag fusion protein. […] Washed with 0.05% Triton X-100 and 0.1% SDS in TBS, the membranes were further incubated with alkaline phosphatase-conjugated goat anti-mouse IgG secondary antibody, washed again, and developed in BCIP-NTB substrate solution. The results were documented by imaging using a high resolution scanner.

[2] = molecular target: T1, bovine cardiac α-tropomyosin (Bos taurus, UniProt Q5KR49); experiment: Competitive ELISA: peptide versus intact bovine cardiac TnI for tropomyosin binding; details: serial dilutions of peptide in solution
T1 construct: Purified bovine cardiac α-tropomyosin was coated on 96-well plate; from tissue; host or cells: bovine cardiac muscle (inferred from 'purified bovine cardiac')
Protocol: Competitive tropomyosin binding experiments were performed using a derivative protocol of the microtiter plate ELISA as described in B. J. Biesiadecki et al., Journal of Biomedicine and Biotechnology, (2011) 1-8. Purified bovine cardiac α-tropomyosin was coated on 96-well plate at 5 μg/mL in Buffer A at 4° C. overnight. Washed and blocked as above, bovine cardiac TnI was added, at a predetermined concentration that produces sub-maximal binding for the immobilized tropomyo sin, to serial dilutions of HcTnI-C27 or HcTnI-C27-H peptides for incubation at room temperature for 2 hours. The competition between the cardiac TnI C-terminal peptides and intact cardiac TnI for tropomyosin binding was measured via mAb 4H6 that recognizes an epitope in intact TnI but not in the C-terminal end peptide, see S. Akhter et al., FEBS Open Bio 5 (2015) 64-75, and HRP-anti-mouse IgG secondary antibody using standard ELISA procedure as described above.

mAb TnI-1 [3] = experiment: Competitive ELISA: peptide versus immobilized bovine cardiac TnI for mAb TnI-1; assay type: binding, mouse; details: physiologic solution
Protocol: To compare the folding and conformation of chemically synthesized HcTnI-C27 and HcTnI-C27-H peptides with that of the biologically synthesized counterparts, competitive ELISA affinity titrations against mAb TnI-1 were performed. 96-well microtiter plates were coated with purified bovine cardiac TnI in Buffer A and incubated at 4° C. overnight. Monoclonal antibody (mAb) TnI-1 was added, at a predetermined concentration that produces sub-maximal binding for the immobilized bovine cardiac TnI, to serial dilutions of biologically or chemically synthesized HcTnI-C27 and HcTnI-C27-H peptides. The effects of the peptides on competing with intact cardiac TnI for mAb TnI-1 were measured via HRP-anti-mouse IgG secondary antibody using standard ELISA procedure as described above.

[4] = system: skinned mouse EDL muscle fibers; experiment: Force-pCa contractility of skinned mouse EDL muscle fibers; assay type: biochemical; details: 20 μM peptide, sarcomere length 2.7 μm
From the text: Extensor digitorum longus (EDL) muscles were obtained from adult C57B/L6 mice immediately after euthanasia to prepare chemically permeabilized muscle preparations as described in J. Ochala et al., The FASEB Journal 25(6) (2011) 1903-1913; and S. M. Roche et al., Journal of Visualized Experiments 100 (2015). Briefly, whole EDL muscles were excised from mice and longitudinally dissected along fibers in a calcium free relaxing buffer. The muscle strips dissected were washed with the relaxing buffer and stored in a 35 mm dish at −20° C. in 50% glycerol relaxing-skinning solution to remove cellular membranes and the endogenous calcium handling system for use in the measurements of calcium sensitivity and force-pCa relationship.
For contractility studies, the storage dish was placed on a thermal-controlled metal stage at 0° C. under a dissection scope. Cryosectioned cardiac muscle strips selected with cardiomyocytes clearly organized along the long axis and EDL muscle fibers were mounted between two aluminum T-clips and transferred to an 8-chamber thermo-controlled stage (802D, Aurora Scientific) on an inverted microscope in relaxation buffer at 6-8° C. Seen through a 20× lens, the muscle preparation was connected to a force transducer (403A, Aurora Scientific) and a length controller (322-C, Aurora Scientific). The buffer was then switched to a skinning solution (relaxation buffer containing 1% Triton X-100) for 20 min to further permeabilize the muscle strips. After a wash with relaxation buffer, the permeabilized muscle strip was placed in pCa 9.0 buffer made by mixing the relaxing buffer (pCa 10.0) with an activation buffer (BES 40 mM, EGTA 10 mM, MgCl2 6.64 mM, ATP 6.23 mM, DTT, 1 mM, CaCl2 10 mM, creatine phosphate 33 mM, creatine kinase 200 U/mL, K-propionate 2.09 mM, pH 7.0, plus protease inhibitor cocktail, pCa 4.0) and the sarcomere length was measured through a digital camera attached to the microscope and adjusted to resting sarcomere length of 2.7 μm for EDL muscle fibers or 2.0 μm and 2.3 μm for cardiac muscle fibers. […]

[5] = system: skinned rat ventricular papillary muscle; experiment: Force-pCa contractility of skinned rat ventricular papillary muscle sections; assay type: biochemical; details: 20 μM peptide
Protocol: (§1) Permeabilized rat and mouse left ventricular papillary muscle preparations were prepared using a skinned cryosection method. Papillary muscles were dissected with a portion of ventricular free wall in one end and valve tendon in the other end. The isolated papillary muscle was pinned down on a cork at the two ends using 30 gauge needles. A small drop of optimal cutting temperature (O.C.T.) compound was used to fill the space between the muscle tissue and the surface of the cork before flash freezing by quickly submerging in liquid nitrogen. The frozen papillary muscle was sectioned longitudinally at a thickness of 35 μm using a cryostat and collected on a glass slide. Four stacked razor blades were used to cut the muscle sections longitudinally into 140-150 μm wide strips. The muscle strips were washed in a relaxing buffer (BES 40 mM, EGTA 10 mM, MgCl2 6.86 mM, ATP 5.96 mM, DTT 1 mM, creatine phosphate 33 mM, creatine kinase 200 U/mL, K-propionate 3.28 mM, pH 7.0, plus protease inhibitor cocktail) and then gently transferred into myofibril relaxation buffer containing 50% glycerol in a 35 mm culture dish and stored at −20° C. for later use in force-pCa studies.
For contractility studies, the storage dish was placed on a thermal-controlled metal stage at 0° C. under a dissection scope. Cryosectioned cardiac muscle strips selected with cardiomyocytes clearly organized along the long axis and EDL muscle fibers were mounted between two aluminum T-clips and transferred to an 8-chamber thermo-controlled stage (802D, Aurora Scientific) on an inverted microscope in relaxation buffer at 6-8° C. Seen through a 20× lens, the muscle preparation was connected to a force transducer (403A, Aurora Scientific) and a length controller (322-C, Aurora Scientific). The buffer was then switched to a skinning solution (relaxation buffer containing 1% Triton X-100) for 20 min to further permeabilize the muscle strips. After a wash with relaxation buffer, the permeabilized muscle strip was placed in pCa 9.0 buffer made by mixing the relaxing buffer (pCa 10.0) with an activation buffer (BES 40 mM, EGTA 10 mM, MgCl2 6.64 mM, ATP 6.23 mM, DTT, 1 mM, CaCl2 10 mM, creatine phosphate 33 mM, creatine kinase 200 U/mL, K-propionate 2.09 mM, pH 7.0, plus protease inhibitor cocktail, pCa 4.0) and the sarcomere length was measured through a digital camera attached to the microscope and adjusted to resting sarcomere length of 2.7 μm for EDL muscle fibers or 2.0 μm and 2.3 μm for cardiac muscle fibers. Calcium activated force was examined at pCa 6.5, 6.3, 6.0, 5.8, 5.5, 5.0, and 4.5 at 15° C. using calcium-EGTA buffer sets made using a formula described in S. M. Roche et al., Journal of Visualized Experiments 100 (2015). HcTnI-C27 peptide was then added at 20 μM and the force-pCa measurements were repeated. The force-pCa curves were plotted and fitted using Hill exponential equation for data analysis, see S. M. Roche et al., Journal of Visualized Experiments 100 (2015).

[6] = system: skinned mouse ventricular papillary muscle; experiment: Force-pCa contractility of skinned mouse ventricular papillary muscle; assay type: biochemical; details: 20 μM peptide
Protocol: as §1
For contractility studies, the storage dish was placed on a thermal-controlled metal stage at 0° C. under a dissection scope. […] After a wash with relaxation buffer, the permeabilized muscle strip was placed in pCa 9.0 buffer made by mixing the relaxing buffer (pCa 10.0) with an activation buffer (BES 40 mM, EGTA 10 mM, MgCl2 6.64 mM, ATP 6.23 mM, DTT, 1 mM, CaCl2 10 mM, creatine phosphate 33 mM, creatine kinase 200 U/mL, K-propionate 2.09 mM, pH 7.0, plus protease inhibitor cocktail, pCa 4.0) and the sarcomere length was measured through a digital camera attached to the microscope and adjusted to resting sarcomere length of 2.7 μm for EDL muscle fibers or 2.0 μm and 2.3 μm for cardiac muscle fibers. […]

mAb TnI-1 [7] = experiment: ELISA titration of mAb TnI-1 against coated fusion proteins / cardiac TnI, non-denaturing; assay type: binding, mouse; details: non-denaturing conditions, protein coated on microtiter plate
Protocol: The ELISA procedure used in the present study for epitope structure and protein binding studies was performed as described in B. J. Biesiadecki et al., Journal of Biomedicine and Biotechnology, (2011) 1-8. Briefly, 96-well microtiter plates were coated with SUMO-HcTnI-C27 fusion protein, SUMO-HcTnI-C27-H fusion protein, purified bovine cardiac TnI, or R192H mutant mouse cardiac TnI (2 μg/mL in Buffer A containing 0.1 M KC1, 3 mM MgCl2, 10 mM PIPES, pH 7.0, 100 microliters/well) at 4° C. overnight. The plates were washed with Buffer T (0.05% Tween-20 in Buffer A) for 10 minutes and tapped dry. The wells were blocked using Buffer B (1% BSA in Buffer T) at room temperature for one hour. After washing again with Buffer T, serial dilutions of primary mAb against the coated protein were added in triplicates in Buffer D (dilution buffer, 0.1% BSA in Buffer T) and the plate was incubated at room temperature for two hours. After Buffer T washes, horseradish peroxidase (HRP)-conjugated anti-mouse immunoglobulin secondary antibody was added to incubate at room temperature for one hour. After final washes, H2O2-2,2′-azinobis-(3-ethylbenzthiazolinesulfonic acid) substrate solution was added for colorimetric development at room temperature and the plate was read using an automated microplate reader at 420 nm at 5 minute intervals for 30 minutes.
The ELISA experiments were done in triplicate wells. […]

[8] = sarcomere lengths 2.0 μm and 2.3 μm

Q: Which “reactivity to mAb TnI-1 in Western blot” value (mAb TnI-1 [1]) does the source give for “ENREVGDWRKNIDALSGMEGRKKKFES (C-terminal portion of human cardiac troponin I) [HcTnI-C27, the C-terminal 27 amino acid peptide of human cardiac TnI]” here?
A: remains reactive to mAb TnI-1

Q: What about the “competition with intact bovine cardiac TnI for binding to immobilized tropomyosin” value [2] of the same substance?
A: dose-dependent competition

Q: And the “competition with intact cardiac TnI for binding of mAb TnI-1, synthetic versus biologically made peptide” value (mAb TnI-1 [3])?
A: nearly identical effectiveness

Q: And the “cooperativity (n) of force-pCa curve” value [4]?
A: significantly decreased cooperativity

Q: What about the maximum force production [4] of the same substance?
A: not affected

Q: What about the “myofilament Ca2+ sensitivity” value [4] of the same substance?
A: myofilament Ca^2+-desensitization effect predominantly in the activated state

Q: What about the pCa50 and cooperativity ([5]; sarcomere length 2.0 μm) of the same substance?
A: small effect on lowering pCa50 and cooperativity

Q: What about the “Ca2+-sensitization effect of increasing sarcomere length” value ([5]; sarcomere length 2.0 μm to 2.3 μm) of the same substance?
A: diminished the Ca^2+-sensitization effect of increasing sarcomere length from 2.0 μm to 2.3 μm

Q: And the cooperativity ([5]; sarcomere length 2.3 μm)?
A: trend of decreasing cooperativity

Q: And the pCa50 ([5]; sarcomere length 2.3 μm)?
A: statistically significant right-shift of pCa50

Q: And the maximum force production [5, 8]?
A: not affected

Q: And the cooperativity ([6]; sarcomere length 2.0 μm, activated state)?
A: significantly lowered cooperativity

Q: What about the “Ca2+ sensitivity (force-pCa curves)” value [6, 8] of the same substance?
A: right-shifts of the force-pCa curves

Q: What about the maximum force production [6, 8] of the same substance?
A: not significantly affected

Q: With “ENREVGDWHKNIDALSGMEGRKKKFES (C-terminal portion of human cardiac troponin I with H substitution for R at position 9) [HcTnI-C27-H, R192H mutant of the C-terminal 27 amino acid peptide of human cardiac TnI, reference compound]” as the substance, how does the “reactivity to mAb TnI-1 in Western blot” value (mAb TnI-1 [1]) read?
A: remains non-reactive to mAb TnI-1

Q: What about the “competition with intact bovine cardiac TnI for binding to immobilized tropomyosin” value [2] of the same substance?
A: diminished

Q: What about the “competition with intact cardiac TnI for binding of mAb TnI-1, synthetic versus biologically made peptide” value (mAb TnI-1 [3]) of the same substance?
A: drastically lost the binding affinity for mAb TnI-1

Q: With “Tx3-SUMO-HcTnI-C27-H: HcTnI-C27-H (R192H mutant) expressed as Tx3-SUMO fusion protein (ENREVGDWHKNIDALSGMEGRKKKFES; also: expressed as Tx3-SUMO fusion protein) [reference compound]” as the substance, how does the “reactivity to mAb TnI-1 in Western blot” value (mAb TnI-1 [1]) read?
A: lost binding to mAb TnI-1

Q: What about the “binding of mAb TnI-1 in ELISA titration” value (mAb TnI-1 [7]) of the same substance?
A: clearly detectable but significantly decreased binding to mAb TnI-1

Q: For “Tx3-SUMO-HcTnI-C27: HcTnI-C27 expressed as fusion protein with Tx3 metal-binding tag and SUMO substrate domain (ENREVGDWRKNIDALSGMEGRKKKFES; also: expressed as Tx3-SUMO fusion protein)”, which “reactivity to mAb TnI-1 in Western blot” value (mAb TnI-1 [1]) is on record?
A: reactive to mAbTnI-1

Q: What about the “binding of mAb TnI-1 in ELISA titration” value (mAb TnI-1 [7]) of the same substance?
A: saturable binding of mAb TnI-1
